# Read-outs that look alike come from different tables or passages of the source.
# Experiments:
# MCF-7 cells = assay: MCF-7 GI50 determination (crystal violet growth inhibition); assay type: cell-based, human; conditions: Homo sapiens, MCF7, 96 h
# Experimental: Growth inhibition (GI50) values were measured on the human breast carcinoma line, MCF-7. MCF-7 cells were plated at 2×10^4 cells/well in 96 well plates and grown for 24 hours in drug free media. On day 2, test compounds were added to the plates at 10-fold dilutions. Four days later, cells were fixed by the addition of glutaraldehyde to 0.75%. After 30 min, the fixed cells were extensively rinsed with distilled water and dried at room temperature for one hour. The cells were then stained with a 0.2% crystal violet solution for one hour at room temperature. Unbound stain was removed by ten rinses with tap water and plates were allowed to air dry for 30 min. The crystal violet was then solubilized by the addition of 10% acetic acid for 15 min and quantified by measuring absorbance at 570 nm on a Molecular Devices microplate reader. Growth inhibition was calculated according to the following equation: GI=[…], where the optical density (OD) of the test well after 4 days of treatment was T, the OD of the wells in the control plate on day 0 was T0. Plots of percent growth inhibition versus inhibitor concentration were used to determine the GI50.
# HeLa S-3 cells = assay: HeLa GI50 determination (SRB growth inhibition); assay type: cell-based, human; conditions: Homo sapiens, HeLa S3, 48 h
# Experimental: Growth inhibition (GI50) values were measured on the human cervical carcinoma cell line, HeLa S-3, which were selected for growth on plastic. The HeLa cell assay was based on the description of Skehan et al., J. Natl. Cancer Inst., 82:1107-12 (1990), which is hereby incorporated by reference in its entirety. HeLa cells were plated at 2×10^4 cells/well in 96 well plates. One day later, a control plate was fixed by the addition of TCA to 5%. After five rinses with tap water, the plate was air-dried and stored at 4° C. Test compounds were added to the remaining plates at 10-fold dilutions. Two days later, all plates were fixed as described above. Cells were then stained by the addition of 100 μL per well of 0.4% sulforhodamine B (SRB) in 1% acetic acid for 30 min at 4° C. Wells were then quickly rinsed 5× with 1% acetic acid and allowed to air dry. The SRB was then solubilized by the addition of 100 μL per well of unbuffered 10 mM Tris base. Dye was quantified by measuring absorbance at 490 nm on a Molecular Devices microplate reader. Growth inhibition was calculated according to the following equation: GI=100×(T−T0)/(C−T0), where the optical density (OD) of the test well after 2 days of treatment was T, the OD of the wells in the control plate on day 0 was T0 and C was the OD of untreated wells. Plots of percent growth inhibition versus inhibitor concentration were used to determine the GI50.
# [1] = read-out: MCF-7 Cells GI50 (nM)
# [2] = MCF-7 cells, 4 days of treatment, crystal violet, read-out: MCF-7 Cells GI50
# [3] = HeLa S-3 cells, 2 days of treatment, sulforhodamine B, read-out: HeLa Cells GI50
SMILES,GI50 (MCF-7 cells; [1]),GI50 (HeLa S-3 cells; read-out: HeLa Cells GI50 (nM)),GI50 (MCF-7 cells; [2]),GI50 (HeLa S-3 cells; [3])
"CC[C@]1(O)C[C@H]2CN(CCc3c([nH]c4ccc(SCCCCO)cc34)[C@@](C(=O)OC)(c3cc4c(cc3OC)N(C)[C@H]3[C@@](O)(C(=O)OC)[C@H](OC(C)=O)[C@]5(CC)C=CCN6CC[C@]43[C@@H]65)C2)C1 [Example 32, 12′-(4-hydroxybutylsulfanyl)vinblastine]",30 nM,35 nM,–,–
"CC[C@]1(O)C[C@H]2CN(CCc3c([nH]c4ccc(SCCCN5CCOCC5)cc34)[C@@](C(=O)OC)(c3cc4c(cc3OC)N(C)[C@H]3[C@@](O)(C(=O)OC)[C@H](OC(C)=O)[C@]5(CC)C=CCN6CC[C@]43[C@@H]65)C2)C1 [Example 49, 12′-(3-(morpholin-4-yl)propylsulfanyl) vinblastine]",30 nM,8 nM,–,–
"CC[C@]1(O)C[C@H]2CN(CCc3c([nH]c4ccc(N5CCCC5)cc34)[C@@](C(=O)OC)(c3cc4c(cc3OC)N(C)[C@H]3[C@@](O)(C(=O)OC)[C@H](OC(C)=O)[C@]5(CC)C=CCN6CC[C@]43[C@@H]65)C2)C1 [Example 87, 12′-(pyrrolidin-1-yl) vinblastine]",60 nM,50 nM,–,–
"CCCCCC(=O)c1ccc2[nH]c3c(c2c1)CCN1C[C@H](C[C@@](O)(CC)C1)C[C@]3(C(=O)OC)c1cc2c(cc1OC)N(C=O)[C@H]1[C@@](O)(C(=O)OC)[C@H](OC(C)=O)[C@]3(CC)C=CCN4CC[C@]21[C@@H]43 [Example 72, 12′-hexanoylvincristine]",50 nM,40 nM,–,–
"CC[C@]1(O)C[C@H]2CN(CCc3c([nH]c4ccc(CO)cc34)[C@@](C(=O)OC)(c3cc4c(cc3OC)N(C)[C@H]3[C@@](O)(C(=O)OC)[C@H](OC(C)=O)[C@]5(CC)C=CCN6CC[C@]43[C@@H]65)C2)C1 [Example 63, 12′-(hydroxymethyl) vinblastine]",–,–,60 nM,40 nM
"CC[C@]1(O)C[C@H]2CN(CCc3c([nH]c4ccc(N(C)c5ccccc5)cc34)[C@@](C(=O)OC)(c3cc4c(cc3OC)N(C)[C@H]3[C@@](O)(C(=O)OC)[C@H](OC(C)=O)[C@]5(CC)C=CCN6CC[C@]43[C@@H]65)C2)C1 [Example 79, 12′-(N-methyl-N-phenylamino) vinblastine]",> 1000 nM,700 nM,–,–
"CC[C@]1(O)C[C@H]2CN(CCc3c([nH]c4ccc(SCCCN5CCCCC5)cc34)[C@@](C(=O)OC)(c3cc4c(cc3OC)N(C)[C@H]3[C@@](O)(C(=O)OC)[C@H](OC(C)=O)[C@]5(CC)C=CCN6CC[C@]43[C@@H]65)C2)C1 [Example 50, 12′-(3-(piperidin-1-yl)propylsulfanyl) vinblastine]",–,–,40 nM,20 nM
"CC[C@]1(O)C[C@H]2CN(CCc3c([nH]c4ccc(C#CC(C)C)cc34)[C@@](C(=O)OC)(c3cc4c(cc3OC)N(C=O)[C@H]3[C@@](O)(C(=O)OC)[C@H](OC(C)=O)[C@]5(CC)C=CCN6CC[C@]43[C@@H]65)C2)C1 [Example 21, 12′-(3-methylbutynyl) vincristine]",300 nM,300 nM,–,–
"CC[C@]1(O)C[C@H]2CN(CCc3c([nH]c4ccc(SCCC(=O)OC)cc34)[C@@](C(=O)OC)(c3cc4c(cc3OC)N(C=O)[C@H]3[C@@](O)(C(=O)OC)[C@H](OC(C)=O)[C@]5(CC)C=CCN6CC[C@]43[C@@H]65)C2)C1 [Example 47, 12′-(methoxycarbonylethylsulfanyl) vincristine]",40 nM,20 nM,–,–
"CC[C@]1(O)C[C@H]2CN(CCc3c([nH]c4ccc(/C=C/C#N)cc34)[C@@](C(=O)OC)(c3cc4c(cc3OC)N(C)[C@H]3[C@@](O)(C(=O)OC)[C@H](OC(C)=O)[C@]5(CC)C=CCN6CC[C@]43[C@@H]65)C2)C1 [Example 30, 12′-(2-cyanovinyl) vinblastine]",45 nM,65 nM,–,–
"CC[C@]1(O)C[C@H]2CN(CCc3c([nH]c4ccc(SCC(=O)O)cc34)[C@@](C(=O)OC)(c3cc4c(cc3OC)N(C)[C@H]3[C@@](O)(C(=O)OC)[C@H](OC(C)=O)[C@]5(CC)C=CCN6CC[C@]43[C@@H]65)C2)C1 [Example 45, 12′-(carboxymethylsulfanyl)vinblastine]",200 nM,50 nM,–,–
"CCSc1ccc2[nH]c3c(c2c1)CCN1C[C@H](C[C@@](O)(CC)C1)C[C@]3(C(=O)OC)c1cc2c(cc1OC)N(C)[C@H]1[C@@](O)(C(=O)OC)[C@H](OC(C)=O)[C@]3(CC)C=CCN4CC[C@]21[C@@H]43 [Example 41, 12′-(ethylsulfanyl) vinblastine]",–,–,3 nM,2 nM
"CC[C@]1(O)C[C@H]2CN(CCc3c([nH]c4ccc(Sc5cccc(O)c5)cc34)[C@@](C(=O)OC)(c3cc4c(cc3OC)N(C=O)[C@H]3[C@@](O)(C(=O)OC)[C@H](OC(C)=O)[C@]5(CC)C=CCN6CC[C@]43[C@@H]65)C2)C1 [Example 54, 12′-(3-hydroxyphenylsulfanyl)vincristine]",50 nM,100 nM,–,–
"CCCCC#Cc1ccc2[nH]c3c(c2c1)CCN1C[C@H](C[C@@](O)(CC)C1)C[C@]3(C(=O)OC)c1cc2c(cc1OC)N(C=O)[C@H]1[C@@](O)(C(=O)OC)[C@H](OC(C)=O)[C@]3(CC)C=CCN4CC[C@]21[C@@H]43 [Example 22, 12′-hexynylvincristine]",300 nM,300 nM,–,–
CC[C@]1(O)C[C@H]2CN(CCc3c([nH]c4ccc(SCc5ccccc5F)cc34)[C@@](C(=O)OC)(c3cc4c(cc3OC)N(C=O)[C@H]3[C@@](O)(C(=O)OC)[C@H](OC(C)=O)[C@]5(CC)C=CCN6CC[C@]43[C@@H]65)C2)C1 [Example 38],200 nM,100 nM,–,–
"CC[C@]1(O)C[C@H]2CN(CCc3c([nH]c4cc(I)c(I)cc34)[C@@](C(=O)OC)(c3cc4c(cc3OC)N(C=O)[C@H]3[C@@](O)(C(=O)OC)[C@H](OC(C)=O)[C@]5(CC)C=CCN6CC[C@]43[C@@H]65)C2)C1 [Example 90, 12′,13′-diiodovincristine]",30 nM,30 nM,–,–
"CC[C@]1(O)C[C@H]2CN(CCc3c([nH]c4ccc(C#C[Si](C)(C)C)cc34)[C@@](C(=O)OC)(c3cc4c(cc3OC)N(C)[C@H]3[C@@](O)(C(=O)OC)[C@H](OC(C)=O)[C@]5(CC)C=CCN6CC[C@]43[C@@H]65)C2)C1 [Example 16, 12′-(trimethylsilylethynyl)vinblastine]",–,–,40 nM,300 nM
"CC[C@]1(O)C[C@H]2CN(CCc3c([nH]c4ccc(C(C)=O)cc34)[C@@](C(=O)OC)(c3cc4c(cc3OC)N(C)[C@H]3[C@@](O)(C(=O)OC)[C@H](OC(C)=O)[C@]5(CC)C=CCN6CC[C@]43[C@@H]65)C2)C1 [Example 70, 12′-acetylvinblastine]",100 nM,200 nM,–,–
"CC[C@]1(O)C[C@H]2CN(CCc3c([nH]c4ccc(CCC(C)C)cc34)[C@@](C(=O)OC)(c3cc4c(cc3OC)N(C=O)[C@H]3[C@@](O)(C(=O)OC)[C@H](OC(C)=O)[C@]5(CC)C=CCN6CC[C@]43[C@@H]65)C2)C1 [Example 73, 12′-(3-methylbutyl) vincristine]",300 nM,200 nM,–,–
"CC[C@]1(O)C[C@H]2CN(CCc3c([nH]c4ccc(SSC)cc34)[C@@](C(=O)OC)(c3cc4c(cc3OC)N(C)[C@H]3[C@@](O)(C(=O)OC)[C@H](OC(C)=O)[C@]5(CC)C=CCN6CC[C@]43[C@@H]65)C2)C1 [Example 57, 12′-(methyldisulfanyl) vinblastine]",–,–,300 nM,300 nM
"CC[C@]1(O)C[C@H]2CN(CCc3c([nH]c4ccc(SCC(=O)NC)cc34)[C@@](C(=O)OC)(c3cc4c(cc3OC)N(C)[C@H]3[C@@](O)(C(=O)OC)[C@H](OC(C)=O)[C@]5(CC)C=CCN6CC[C@]43[C@@H]65)C2)C1 [Example 46, 12′-(methylaminocarbonylmethylsulfanyl)vinblastine]",500 nM,200 nM,–,–
"CC[C@]1(O)C[C@H]2CN(CCc3c([nH]c4ccc(-c5nccs5)cc34)[C@@](C(=O)OC)(c3cc4c(cc3OC)N(C)[C@H]3[C@@](O)(C(=O)OC)[C@H](OC(C)=O)[C@]5(CC)C=CCN6CC[C@]43[C@@H]65)C2)C1 [Example 15, 12′-(2-thiazolyl) vinblastine]",100 nM,200 nM,–,–

# — patent publication US7745619B2, “Vinca derivatives” (priority 2003, dated 2010)
